Measurements from patent publication US9149489B2, “Inhibitors of glycolysis useful in the treatment of brain tumors” (Board of Regents, University of Texas System, priority 2006, dated 2015).
Where two headings read alike, the source gives them in different places.

Key:
orthotopic glioma model = test: Orthotopic glioma model, antitumor activity in vivo; details: compared with temozolomide
U87 cells [1] = test: Acridine orange staining of acidic vesicular organelles (AVO), autophagy; assay type: cell-based, human; details: 72 hours, increasing concentrations, hypoxia and normoxia
Procedure: FIGS. 14a through 14f provide the quantification of 2-DFG induced autophagy in U87 glioma cells after 72 h of normoxia treatment in 5.6 mM low glucose media using acridine orange-acid vesicular organelles (AVO) straining assay.
FIGS. 15a through 15f provide the quantification of 2-DFG induced autophagy in U87 glioma cells after 72 h of hypoxia treatment in 5.6 mM low glucose media using acridine orange-acid vesicular organelles (AVO) straining assay.
(§1) To test the ability of the 2-DFG to induce autophagic cell death, we monitored the increase in acidic vesicular organelles (AVO) using acridine orange staining in U87 cells treated with increasing concentrations of 2-DFG for 72 hours under hypoxia and normoxia. […] Therefore, targeting the energetic metabolism of cancer cells and the autophagic survival response using inhibitors of glycolysis is a promising therapeutic approach for the treatment of cancers that are dependent on glycolysis for survival.

U87 cells [2] = test: Cell cycle analysis; assay type: cell-based, human; details: 5 mM, 72 h
U87 glioblastoma cells [3] = test: U87 cell viability assay with co-treatment by D-glucose, D-mannose or D-galactose (competition); assay type: cell-based, human; details: for Viability Protection by D-Mannose Under Hypoxia (IC50 shift) / Viability Protection by D-Mannose Under Normoxia (IC50 shift): co-treatment with 0.1 mM of D-mannose; for Viability Protection by D-Galactose Under Hypoxia (IC50 shift) / Viability Protection by D-Galactose Under Normoxia (IC50 shift): co-treatment with 5 mM of D-galactose; for Viability Protection by D-Glucose Under Hypoxia (IC50 shift) / Viability Protection by D-Glucose Under Normoxia (IC50 shift): co-treatment with 5 mM of D-glucose
Procedure: (§2) Cell viability experiments were carried out in U87 glioblastoma cells with 8000 cells/well in flat bottom 96 well plates. The cells were grown in low glucose (5.4 mM) DMEM/F12 media with 10% FBS and antibiotics. 24 hours after plating, cells were treated with increasing concentration of 2-deoxy-2,2-difluoro-D-arabino-hexopyranose (DFG) for 72 hours in normoxic (21% O2) or hypoxic (0.1% O2) conditions. In addition, to test the ability of monosachamides to compete with DFG in inhibiting glycolysis and glycosylation, cells were treated with increasing concentrations of glucose, mannose or galactose. The experiments were carried out in duplicate (n=2).
(§3) U87 human glioma cancer cells were obtained from the American Type Culture Collection (Manassas, Va.) and maintained in a humidified atmosphere containing 5% CO2 at 37° C. Cells were routinely cultured in DMEM/F12 medium (Invitrogen Corp., Grand Island, N.Y.) supplemented with 10% heat inactivated fetal bovine serum (Hyclone Laboratories Inc., Logan, Utah), 50 IU/ml penicillin and […] streptomycin from GIBCO (Invitrogen). Cell viability experiments were carried out in U87 cells with 8000 cells/well in flat bottom 96 well plates. The cells were grown in low glucose (5.4 mM) DMEM/F12 media supplied with 10% FBS and antibiotics. 24 hours after plating, cells were treated with increasing concentration (1 to 10 mM) of 2-difluoro-D-glucose (DFG) for 72 hours in normoxic (21% O2) or hypoxic (approximately 0.1% O2) conditions. To test the competing ability of glucose, galactose and mannose with DFG, the cells were also treated with increasing concentration of the glucose (5, 10, and 20 mM), galactose (5, 10, and 20 mM) or mannose (0.1, 1, and 5 mM). The experiments were carried out in duplicate (n=2). After 72 hours of treatment, inhibition of cellular proliferation was assessed by the MTT assay. Absorbance was read at a wavelength of 570 nm using a V Max Micro plate reader by Molecular Devices, Inc. (Sunnyvale, Calif.). The cytoctoxicity of 2-DFG was calculated by normalization to the 100% viability of the control (untreated cells) and presented as percent control.

U87 glioblastoma cells [4] = test: U87 cell viability (MTT) assay under normoxia and hypoxia; assay type: cell-based, human; details: for IC50: Homo sapiens, U-87 MG, 72 h
Procedure: as §2, §3

U87 cells [5] = test: Transmission electron microscopy / detection of autophagosomes; assay type: cell-based, human
Procedure: FIGS. 16a through 16d provides electron micrographs of 2-DFG induced autophagy in U87 cells (5 mM, 72 h treatment, 5.6 mM low glucose media).
as §1

[6] = hypoxia (0.1% O2), 72 hours, low glucose media, read-out: Inhibition under Hypoxia (IC50, U87 cell viability)
[7] = normoxia (21% O2), 72 hours, low glucose media, read-out: Inhibition under Normoxia (IC50, U87 cell viability)

IC50 (U87 glioblastoma cells [4]; [6])	IC50 (U87 glioblastoma cells [4]; [7])	SMILES	Antitumor activity in vivo (orthotopic glioma model)	Acidic vesicular organelles (AVO), acridine orange staining (U87 cells [1])	Cell cycle distribution: G2/M phase (U87 cells [2])	Cell cycle distribution: Sub G0/G1 phase (U87 cells [2])	Viability Protection by D-Mannose Under Hypoxia (IC50 shift) (U87 glioblastoma cells [3])	Viability Protection by D-Galactose Under Hypoxia (IC50 shift) (U87 glioblastoma cells [3])	Viability Protection by D-Glucose Under Hypoxia (IC50 shift) (U87 glioblastoma cells [3])	Viability Protection by D-Mannose Under Normoxia (IC50 shift) (U87 glioblastoma cells [3])	Viability Protection by D-Galactose Under Normoxia (IC50 shift) (U87 glioblastoma cells [3])	Viability Protection by D-Glucose Under Normoxia (IC50 shift) (U87 glioblastoma cells [3])	IC50 (U87 glioblastoma cells [4]; hypoxic conditions (0.1% O2), read-out: IC50 (cytotoxicity in U87 cells))	IC50 (U87 glioblastoma cells [4]; normoxic conditions (21% O2), read-out: IC50 (cytotoxicity in U87 cells))	Concentration giving substantial inhibition of cellular growth (U87 glioblastoma cells [4]; hypoxic conditions)	Concentration required for substantial inhibition of cellular growth (U87 glioblastoma cells [4]; normoxic conditions)	Autophagosomes by electron microscopy (U87 cells [5]; 5 mM, 72 h treatment, normoxia)	Stimulation of autophagy (detection of autophagosomes after treatment) (U87 cells [5]; U87 Glioblastoma cells, preliminary studies)
		O=C[C@H](F)[C@@H](O)[C@H](O)[C@H](O)CO [2-FG, 2-fluoro-2-deoxy-D-glucose]	comparable to that of temozolomide															
		O=C[C@@H](F)[C@@H](O)[C@H](O)[C@H](O)CO [2-FM, 2-fluoro-2-deoxy-D-mannose]	comparable to that of temozolomide															
1500 to 1800 µM	≥ 1800 µM	OC[C@H]1OC(O)C(F)(F)[C@@H](O)[C@@H]1O (stereo partly drawn) [DFG, 2-Deoxy-2,2-difluoro-D-arabino-hexopyranose]		concentration dependent increase in acridine orange staining	significant increase in G2/M phase	no significant increase in Sub G0/G1 phase	− (0-0.5 mM IC50 shift after co-treatment with 0.1 mM of D-mannose)	− (0-0.5 mM IC50 shift after co-treatment with 5 mM of D-galactose.)	++ (~1.5-2 mM IC50 shift after co-treatment with 5 mM of D-glucose)	+ (~1 mM IC50 shift after co-treatment with 0.1 mM of D-mannose)	− (0-0.5 mM IC50 shift after co-treatment with 5 mM of D-galactose.)	+ (~1 mM IC50 shift after co-treatment with 5 mM of D-glucose)	1200 µM	2900 µM	lower than 4 mM	above 6 mM	extensive presence of autophagosomes	
≥ 1800 µM	≥ 1800 µM	O=CC[C@@H](O)[C@H](O)[C@H](O)CO [2-DG, 2-Deoxy-D-glucose, reference compound]	comparable to that of temozolomide				++ (~1.5-2 mM IC50 shift after co-treatment with 0.1 mM of D-mannose)	− (0-0.5 mM IC50 shift after co-treatment with 5 mM of D-galactose.)	+++ (>5 mM IC50 shift after co-treatment with 5 mM of D-glucose)	+++ (>5 mM IC50 shift after co-treatment with 0.1 mM of D-mannose)	− (0-0.5 mM IC50 shift after co-treatment with 5 mM of D-galactose.)	+ (~1 mM IC50 shift after co-treatment with 5 mM of D-glucose)						able to stimulate the process of autophagy
